Assay results from ChEMBL document CHEMBL1128704, “(R)-11-hydroxy- and (R)-11-hydroxy-10-methylaporphine: synthesis, pharmacology, and modeling of D2A and 5-HT1A receptor interactions” (J Med Chem, 1995).

Assays:
D(1A) dopamine receptor = D(1A) dopamine receptor (Rattus norvegicus, UniProt P18901); assay: Ability to displace [3H]SCH-23390 binding to rat striatal Dopamine receptor D1
D(2) dopamine receptor = D(2) dopamine receptor (Homo sapiens, UniProt P14416); assay: Ability to displace [3H]raclopride binding to cloned human Dopamine receptor D2A
[1] = target: T1, 5-hydroxytryptamine receptor 1A (Rattus norvegicus, UniProt P19327); assay: (§1) Ability to inhibit 5-HT sensitive,forskolin-stimulated adenylyl cyclase(FSC) activity in rat hippocampal membranes mediated through 5-hydroxytryptamine 1A receptor; format: functional, cell membranes
T1 sequence (P19327 whole entry): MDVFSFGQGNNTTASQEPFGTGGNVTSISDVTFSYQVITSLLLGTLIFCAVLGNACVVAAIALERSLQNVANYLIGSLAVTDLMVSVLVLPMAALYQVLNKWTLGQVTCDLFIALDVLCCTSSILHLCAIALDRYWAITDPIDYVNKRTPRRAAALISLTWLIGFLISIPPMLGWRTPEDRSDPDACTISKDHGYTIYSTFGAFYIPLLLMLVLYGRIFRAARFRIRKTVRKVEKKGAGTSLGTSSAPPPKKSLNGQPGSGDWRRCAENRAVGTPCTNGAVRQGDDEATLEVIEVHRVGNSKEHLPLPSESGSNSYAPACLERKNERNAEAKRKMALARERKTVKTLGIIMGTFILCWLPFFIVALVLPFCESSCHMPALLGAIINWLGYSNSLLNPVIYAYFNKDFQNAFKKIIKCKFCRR

[2] = target: T2, 5-hydroxytryptamine receptor 1A (Rattus norvegicus) (UniProt P19327); assay: as §1; format: functional, cell membranes; conditions: concentration not given here
T2 sequence (whole entry): T1 sequence (P19327 whole entry)

[3] = target: T1, 5-hydroxytryptamine receptor 1A; assay: Ability to displace [3H]8-OH-DPAT binding to rat hippocampal 5-hydroxytryptamine 1A receptor; format: tissue-based, Hippocampus

Sequence of D(1A) dopamine receptor (P18901 whole entry): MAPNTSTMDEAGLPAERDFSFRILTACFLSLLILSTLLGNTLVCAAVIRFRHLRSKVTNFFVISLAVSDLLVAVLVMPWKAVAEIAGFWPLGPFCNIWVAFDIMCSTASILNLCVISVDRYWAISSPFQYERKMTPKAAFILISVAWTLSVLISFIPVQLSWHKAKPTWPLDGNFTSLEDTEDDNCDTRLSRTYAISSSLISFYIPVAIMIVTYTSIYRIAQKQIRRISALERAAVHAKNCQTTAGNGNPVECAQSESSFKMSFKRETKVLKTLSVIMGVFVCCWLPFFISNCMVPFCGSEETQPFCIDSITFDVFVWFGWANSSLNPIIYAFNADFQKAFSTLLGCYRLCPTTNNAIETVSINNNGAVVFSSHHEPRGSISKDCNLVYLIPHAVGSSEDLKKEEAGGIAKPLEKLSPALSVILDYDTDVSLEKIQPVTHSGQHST
Sequence of D(2) dopamine receptor (P14416 whole entry): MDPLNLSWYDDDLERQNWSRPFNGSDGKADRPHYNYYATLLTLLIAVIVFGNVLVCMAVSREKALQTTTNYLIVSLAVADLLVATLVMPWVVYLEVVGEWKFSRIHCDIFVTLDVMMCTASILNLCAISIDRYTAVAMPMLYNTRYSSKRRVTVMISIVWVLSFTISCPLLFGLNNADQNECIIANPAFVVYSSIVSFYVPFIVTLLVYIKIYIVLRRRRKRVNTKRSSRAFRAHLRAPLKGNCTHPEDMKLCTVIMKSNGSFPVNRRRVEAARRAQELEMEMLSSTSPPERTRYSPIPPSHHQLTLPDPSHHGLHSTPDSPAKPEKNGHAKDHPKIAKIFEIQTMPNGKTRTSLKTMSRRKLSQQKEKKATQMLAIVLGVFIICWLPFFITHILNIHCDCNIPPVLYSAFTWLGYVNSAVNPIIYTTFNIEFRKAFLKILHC

Row | SMILES | Ki (D(1A) dopamine receptor) [nM] | Ki (D(2) dopamine receptor) [nM] | EC50 [1] [nM] | inhibition [2] [%] | Ki [3] [nM]
1 | Cc1ccc2c(c1O)-c1cccc3c1[C@@H](C2)N(C)CC3 | 382 | 1070 | 55 | 102 | 0.45
2 | CN1CCc2cccc3c2[C@H]1Cc1cccc(O)c1-3 | 20.4 | 58.5 | 5200 | 60 | 9.6
